IC50 and IC90 data for eleven compounds are collected here from US8309685B2 (Celgene Avilomics Research, Inc., priority 2007, dated 2012).

Structures are written as SMILES.

Test [1] has as its target T1, wild type HCV NS3/4A 1b protease enzyme (Hepatitis C virus genotype 1b, UniProt P26663).
T1 construct: 10× stocks of NS3/4A protease enzyme from Bioenza (Mountain View, Calif.); purchased Bioenza (Mountain View, Calif.)
In words: HCV Protease FRET Assay (IC50_APP), wild type. The test is classed as biochemical. The note with it: read-out: IC50_APP, WT; apparent IC50, wild type NS3/4A 1b. How it is done:
(§1) HCV Protease FRET Assay for WT and Mutated NS3/4A 1b Enzymes (IC50—APP).
(§2) The following protocol was used to generate “apparent” IC50 (IC50—APP) values as depicted in Table 6, below. […] 5 μL of each enzyme were added to Corning (#3575) 384-well, black, microtiter plates (Corning, N.Y.) after spotting a 0.5 μL volume of 50% DMSO and serially diluted compounds prepared in 50% DMSO. Protease reactions were immediately started after enzyme addition with the addition of 45 μL of the FRET substrate and monitored for 60-90 minutes at λex485/λem520 in a Synergy^4 plate reader from BioTek (Winooski, Vt.). At the conclusion of each assay, progress curves from each well were examined for linear reaction kinetics and fit statistics (R^2, 95% confidence intervals, absolute sum of squares).
(§3) The compound numbers correspond to the compound numbers in Table 3. […] ;

The target in test [2] is T2, D168A mutant of the HCV NS3/4A 1b protease enzyme (Hepatitis C virus genotype 1b, UniProt P26663, D1194A).
T2 construct: 10× stocks of NS3/4A protease enzyme from Bioenza (Mountain View, Calif.); purchased Bioenza (Mountain View, Calif.)
In words: HCV Protease FRET Assay (IC50_APP), D168A mutant. The test is classed as biochemical. The note with it: apparent IC50, D168A mutant; read-out: IC50_APP, HCV D168A. How it is done:
as §1, §2, §3

In test [3] the test system is HCV RNA replicon in cell line ET (luc-ubi-neo/ET), human Huh7 hepatoma. In words: Method A: HCV RNA replicon antiviral assay (luciferase, ET cell line). The test is classed as cell-based, Hepatitis C virus. The following applies: Hepatitis C virus, Huh-7, assay described in Example 22; for IC50: read-out: Replicon (IC50). How it is done: The compounds were assayed to evaluate the antiviral activity and cytotoxicity of compounds in vitro using HCV RNA replicons. This assay used the cell line ET (luc-ubi-neo/ET), which is a human Huh7 hepatoma cell line that contains an HCV RNA replicon with a stable luciferase (Luc) reporter and three cell culture-adaptive mutations. […]
The ET cell line was grown in Dulbecco's modified essential media (DMEM), 10% fetal bovine serum (FBS), 1% penicillin-streptomycin (pen-strep), 1% glutamine, 250 μg/ml G418 in a 5% CO2 incubator at 37° C. All cell culture reagents were obtained from Mediatech (Manassas, Va.). Cells were trypsinized (1% trypsin:EDTA) and plated out at 5×10^3 cells/well in white 96-well assay plates (Costar) dedicated to cell number (cytotoxicity) or antiviral activity assessments. Drugs were added at six 3-fold concentrations each and the assay was run in DMEM, 5% FBS, 1% pen-strep, 1% glutamine. Human interferon alpha-2b (PBL Biolabs, New Brunswick, N.J.) was included in each run as a positive control compound. Cells were processed 72 hr post drug addition when the cells are still subconfluent. Antiviral activity was measured by analyzing replicon-derived luciferase activity using the Steady-Glo Luciferase Assay System (Promega, Madison, Wis.) according to manufacturer's instruction. The number of cells in each well was determined by CytoTox-1 reagent (Promega). Compound profile was derived by calculating applicable EC50 (effective concentration inhibiting virus replication by 50%), EC90 (effective concentration inhibiting virus replication by 90%), IC50 (concentration decreasing cell viability by 50%) and SI50 (selective index: […]) values.
(Replicon systems follow genome replication, usually without infectious particles.)

Test [4] deals with T3, A156T mutant of the HCV NS3/4A 1b protease enzyme (Hepatitis C virus genotype 1b, UniProt P26663, A1182T).
T3 construct: 10× stocks of NS3/4A protease enzyme from Bioenza (Mountain View, Calif.); purchased Bioenza (Mountain View, Calif.)
In words: HCV Protease FRET Assay (IC50_APP), A156T mutant. The test is classed as biochemical. The note with it: apparent IC50, A156T mutant; read-out: IC50_APP, HCV A156T. As to the method:
as §1, §2, §3

Turning to `C=C[C@@H]1C[C@]1(NC(=O)[C@@H]1C[C@@H](Oc2cc(-c3ccccc3)nc3cc(OC)ccc23)CN1C(=O)C(CN(C)C(=O)C#CC)NC(=O)OC(C)(C)C)C(=O)NS(=O)(=O)c1ccccc1` (stereo in doubt) [Compound I-51, tert-butyl-(S)-1-((2S,4R)-4-(7-methoxy-2-phenylquinolin-4-yloxy)-2-((1R,2S)-1-(phenylsulfonylcarbamoyl)-2-vinylcyclopropylcarbamoyl)pyrrolidin-1-yl)-3-(N-methylbut-2-ynamido)-1-oxopropan-2-ylcarbamate], the IC50 in test [1] fell in the range of 10 to 100 nM; in test [2], 1000 to 10000 nM.
In general, IC90 refers to the concentration at which the effect reaches the 90% level. Read a low IC90 as an effect from little substance. In the case of `C=C[C@@H]1C[C@]1(NC(=O)[C@@H]1C[C@@H](Oc2cc(-c3ccccc3)nc3cc(OC)ccc23)CN1C(=O)C(CN(C)C(=O)C(=C)C(F)(F)F)NC(=O)OC(C)(C)C)C(=O)NS(=O)(=O)c1ccccc1` (stereo in doubt) [Compound I-53, tert-butyl-(S)-1-((2S,4R)-4-(7-methoxy-2-phenylquinolin-4-yloxy)-2-((1R,2S)-1-(phenylsulfonylcarbamoyl)-2-vinylcyclopropylcarbamoyl)pyrrolidin-1-yl)-3-(N-methyl-2-(trifluoromethyl)acrylamido)-1-oxopropan-2-ylcarbamate], the IC90 in test [3] is greater than 10000 nM. Moreover, the IC50 was 100 to 1000 nM in test [3], less than 10 nM in test [1], 10 to 100 nM in test [4] and 100 to 1000 nM in test [2].
Regarding `C=CC(=O)N(C)C[C@H](NC(=O)OC(C)(C)C)C(=O)N1C[C@H](Oc2cc(-c3ccccc3)nc3cc(OC)ccc23)C[C@H]1C(=O)N[C@]1(C(=O)NS(=O)(=O)C2CC2)C[C@H]1C=C` [Compound I-52, tert-butyl-(S)-1-((2S,4R)-2-((1R,2S)-1-(cyclopropylsulfonylcarbamoyl)-2-vinylcyclopropylcarbamoyl)-4-(7-methoxy-2-phenylquinolin-4-yloxy)pyrrolidin-1-yl)-3-(N-methylacrylamido)-1-oxopropan-2-ylcarbamate], in test [3], the IC90 is less than 10 nM. Also, the IC50 in test [3] was less than 10 nM; in test [1], less than 10 nM; in test [4], 100 to 1000 nM; in test [2], 1000 to 10000 nM.
Regarding `C=CC(=O)NC[C@H](NC(=O)OC1CCCC1)C(=O)N1C[C@H](Oc2cc(-c3ccccc3)nc3cc(OC)ccc23)C[C@H]1C(=O)N[C@]1(C(=O)NS(=O)(=O)C2CC2)C[C@H]1C=C` [Compound I-55, Cyclopentyl-(S)-3-acrylamido-1-((2S,4R)-2-((1R,2S)-1-(cyclopropylsulfonylcarbamoyl)-2-vinylcyclopropylcarbamoyl)-4-(7-methoxy-2-phenylquinolin-4-yloxy)pyrrolidin-1-yl)-1-oxopropan-2-ylcarbamate], the IC90 in test [3] is 100 to 1000 nM. In addition, the IC50 in test [3] is less than 10 nM; in test [1] it was less than 10 nM; in test [4], 100 to 1000 nM; in test [2] it was 100 to 1000 nM.
In test [3], `C=CC(=O)N[C@@H](C(=O)N1C[C@H](Oc2cc(-c3ccccc3)nc3cc(OC)ccc23)C[C@H]1C(=O)N[C@]1(C(=O)NS(=O)(=O)C2CC2)C[C@H]1C=C)C(C)C` [Compound I-56, (2S,4R)-1-((R)-2-acrylamido-3-methylbutanoyl)-N-((1R,2S)-1-(cyclopropylsulfonylcarbamoyl)-2-vinylcyclopropyl)-4-(7-methoxy-2-phenylquinolin-4-yloxy)pyrrolidine-2-carboxamide] registered an IC90 of 10 to 100 nM. The IC50 in test [3] was less than 10 nM; in test [1], less than 10 nM; in test [4], 10 to 100 nM; in test [2], 100 to 1000 nM.
Turning to `C=C[C@@H]1C[C@]1(NC(=O)[C@@H]1C[C@@H](Oc2cc(-c3ccccc3)nc3cc(OC)ccc23)CN1C(=O)CNC(=O)/C=C/C)C(=O)NS(=O)(=O)C1CC1` [Compound I-57, (2S,4R)-1-(2-(E)-but-2-enamidoacetyl)-N-((1R,2S)-1-(cyclopropylsulfonylcarbamoyl)-2-vinylcyclopropyl)-4-(7-methoxy-2-phenylquinolin-4-yloxy)pyrrolidine-2-carboxamide], the IC50 in test [1] lay in the range of 100 to 1000 nM; in test [2], 1000 to 10000 nM.
`C=CC(=O)N(C)C[C@H](NC(=O)c1cnccn1)C(=O)N1C[C@H](Oc2cc(-c3ccccc3)nc3cc(OC)ccc23)C[C@H]1C(=O)N[C@]1(C(=O)NS(=O)(=O)C2CC2)C[C@H]1C=C` [Compound I-58, (S)—N-3-(N-methyl)acrylamido-1-((2S,4R)-2-((1R,2S)-1-(cyclopropylsulfonylcarbamoyl)-2-vinylcyclopropylcarbamoyl)-4-(7-methoxy-2-phenylquinolin-4-yloxy)pyrrolidin-1-yl)-1-oxo-2-propylpyrazinecarboxamide] returned a concentration for an effect of 90% (IC90) in test [3] of 1000 to 10000 nM. For the same compound, the IC50 in test [3] lay in the range of 100 to 1000 nM; in test [1], 10 to 100 nM; in test [4], 1000 to 10000 nM; in test [2], 1000 to 10000 nM.
In test [3], `C=C[C@@H]1C[C@]1(NC(=O)[C@@H]1C[C@@H](Oc2cc(-c3ccccc3)nc3cc(OC)ccc23)CN1C(=O)[C@H](Cc1ccc(F)c([N+](=O)[O-])c1)NC(=O)OC(C)(C)C)C(=O)NS(=O)(=O)c1ccccc1` [Compound I-59, tert-butyl-(S)-1-((2S,4R)-4-(7-methoxy-2-phenylquinolin-4-yloxy)-2-((1R,2S)-1-(phenylsulfonylcarbamoyl)-2-vinylcyclopropylcarbamoyl)pyrrolidin-1-yl)-3-(4-fluoro-3-nitrophenyl)-1-oxopropan-2-ylcarbamate] registered a 90% effect concentration (IC90) of 1000 to 10000 nM. For the same compound, the IC50 is 100 to 1000 nM in test [3], less than 10 nM in test [1], 1000 to 10000 nM in test [4] and 1000 to 10000 nM in test [2].
Regarding `C=C[C@@H]1C[C@]1(NC(=O)[C@@H]1C[C@@H](Oc2cc(-c3ccccc3)nc3cc(OC)ccc23)CN1C(=O)CNC(=O)c1ccc([N+](=O)[O-])cc1F)C(=O)NS(=O)(=O)c1ccccc1` [Compound I-63, (2S,4R)-1-(2-fluoro-4-nitrobenzamidoacetyl)-N-((1R,2S)-1-(phenylsulfonylcarbamoyl)-2-vinylcyclopropyl)-4-(7-methoxy-2-phenylquinolin-4-yloxy)pyrrolidine-2-carboxamide], the IC50 in test [1] is 100 to 1000 nM; in test [4] it was 1000 to 10000 nM; in test [2], 1000 to 10000 nM.
`C=CC(=O)N[C@@H](C(=O)N1C[C@H](Oc2cc(-c3ccccc3)nc3cc(OC)ccc23)C[C@H]1C(=O)N[C@]1(C(=O)NS(=O)(=O)C2CC2)C[C@H]1C=C)C(C)(C)C` [Compound I-65, (2S,4R)-1-((R)-2-acrylamido-3,3-dimethylbutanoyl)-N-((1R,2S)-1-(cyclopropylsulfonylcarbamoyl)-2-vinylcyclopropyl)-4-(7-methoxy-2-phenylquinolin-4-yloxy)pyrrolidine-2-carboxamide]: the IC50 in test [1] was in the range of 100 to 1000 nM; in test [4], 1000 to 10000 nM; in test [2] it was 1000 to 10000 nM.
For `C=C[C@@H]1C[C@]1(NC(=O)[C@@H]1C[C@@H](Oc2cc(-c3ccccc3)nc3cc(OC)ccc23)CN1C(=O)[C@H](CCC(=O)N[C@H]1COC1=O)NC(=O)OC(C)(C)C)C(=O)NS(=O)(=O)C1CC1` [Compound I-69, t-butyl-(2S)-1-((2S,4R)-2-((1R,2S)-1-(cyclopropylsulfonylcarbamoyl)-2-vinylcyclopropylcarbamoyl)-4-(7-methoxy-2-phenylquinolin-4-yloxy)pyrrolidin-1-yl)-5-((3S)-2-oxooxetan-3-ylamino)-1,5-dioxopentan-2-ylcarbamate], the IC50 was less than 10 nM in test [1], 100 to 1000 nM in test [4] and 100 to 1000 nM in test [2].
